# Columns and labels:
# human cardiomyocytes = assay: Binding and uptake into human cardiomyocytes; type: cell-based; settings: compared with MM-302 and untargeted pegylated liposomal doxorubicin
# Excerpt: Additionally, the number of HER2 receptors needed per cell to optimize the binding of MM-302 is approximately 200,000 HER2 receptors per cell. […] The primary mechanism of action of MM-302 is the use of the HER2 protein to selectively deliver doxorubicin into tumor cells that express greater than approximately 200,000 HER2 receptors per cell.
# [1] = system: BT-474-M3 breast cancer cells; assay: BT-474-M3 breast cancer xenograft after failure to respond to T-DM1; type: in vivo, mice
# Protocol: The response to the MM-302 and trastuzumab combination after failure to respond to T-DM1 was evaluated in the BT-474-M3 breast cancer xenograft model.
# To obtain the BT-474-M3 HER2-overexpressing human breast cancer cell line, BT-474 cells (ATCC® HTB-20™) were passaged twice through mice with the fastest growing two tumors out of ten selected for ex-vivo propagation during each round of selection. Tumors were excised and cultured ex-vivo to obtain the M3 sub-line that was verified by SNP analysis. (see Noble, Cancer Chemother. Pharmacol. 2009 64:741-51).
# Mice were inoculated with BT-474-M3 breast cancer cells (15×10^6; into the mammary fat pad). When tumor volumes reached about 360 mm^3, mice were treated with T-DM1 at either 1, 2, or 4 mg/kg (q1w) (white circles). […] At day 55, the mice were switched from T-DM1 treatment to the combination of MM-302 (3 mg/kg, q1w for a total of 3 doses; day 55, 62 and 69) and trastuzumab (at a loading dose of 8 mg/kg followed by 6 mg/kg q1w) (black squares). Changes in tumor volume as well as in mouse weight were monitored twice a week.
compound,measurement,setting,value
"COc1cccc2c1C(=O)c1c(O)c3c(c(O)c1C2=O)C[C@@](O)(C(=O)CO)C[C@@H]3O[C@H]1C[C@H](N)[C@H](O)[C@H](C)O1 [free doxorubicin, (8S,10S)-10-(4-amino-5 hydroxy-6-methyl-tetrahydro-2H-pyran-2-yloxy)-6,8,11-trihydroxy-8-(2-hydroxyacetyl)-1-methoxy-7,8,9,10-tetrahydrotetracene-5,12-dione]",level of uptake into human cardiomyocytes,human cardiomyocytes,relatively much higher
T-DM1,tumor response to single agent,"[1]; T-DM1 1, 2 or 4 mg/kg q1w",failed to respond
same,slope of tumor volume curve (linear regression),"[1]; days 0-55, during T-DM1 treatment",positive slope
